Laboratory results from US12403144B2, “HECT E3 ligase inhibitors and uses thereof” (IFOM FONDAZIONE ISTITUTO FIRC DI ONCOLOGIA MOLECOLARE, priority 2019, dated 2025).
Structures can show the parent of a compound that is named as a salt.

Biological target: T1, untagged HECT of NEDD4 wild-type (WT) (E3 ligase) (Homo sapiens, UniProt P46934)
T1 construct: untagged HECT of NEDD4 wild-type (WT) (E3 ligase); made in house
T1 sequence (P46934 519-900 isoform P46934-4 limits assumed): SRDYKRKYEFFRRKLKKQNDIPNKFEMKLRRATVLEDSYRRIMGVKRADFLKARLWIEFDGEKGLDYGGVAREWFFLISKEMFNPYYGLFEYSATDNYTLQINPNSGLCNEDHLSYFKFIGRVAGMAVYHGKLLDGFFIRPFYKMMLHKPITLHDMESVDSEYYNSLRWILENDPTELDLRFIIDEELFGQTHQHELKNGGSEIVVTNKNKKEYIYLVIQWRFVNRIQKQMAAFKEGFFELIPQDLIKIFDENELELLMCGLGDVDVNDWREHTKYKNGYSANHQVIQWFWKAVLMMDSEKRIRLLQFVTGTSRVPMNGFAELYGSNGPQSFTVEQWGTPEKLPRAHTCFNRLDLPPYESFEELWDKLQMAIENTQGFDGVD
Assay: In vitro ubiquitination assay TR-FRET based (self-ubiquitination of NEDD4)
Format: biochemical
Conditions: at 11 μM; pre-incubated for 1 hour; AUC of 120 minutes kinetic; read-out: percentages of inhibition (NEDD4)
From the text: FIG. 1: TR-FRET kinetic assay performed with compound 12. […] Reactions were initiated with the addition of ATP. As labeled ubiquitin molecules become incorporated into chains they come into close proximity, resulting in energy transfer and increased signal to background detection. The activity of the enzyme is continuously and real time detected and it is expressed as % of signal/background during the time.
In order to quantitatively measure the self-ubiquitination process of the E3 HECT ligase NEDD4 the inventors employed a TR-FRET based assay. TR-FRET technology exploits the long-lasting emission of lanthanide fluorescence to interpose a short time-delay between FRET donor excitation and emission. This phenomenon enables to isolate real fluorescent signals from short-lived background emissions, thus reducing possible interference from compounds.
In the present study, elongation of the ubiqutin chain by NEDD4 is measured by adding bacterially expressed E1, His-tagged UBE2D3 (E2) and untagged HECT of NEDD4 wild-type (WT) (E3 ligase) (named in FIG. 1 as WT) enzymes to a mixture of Eu-cryptate ubiquitin, Cy5-ubiquitin and wild-type ubiquitin, combined in a ratio optimized for TR-FRET based conjugation (100×TRF-Ubiquitin Mix, SBB-TR0051). […] Bacterially expressed E1, His-tagged UBE2D3 (E2), untagged HECT NEDD4 (E3 ligase) WT and NEDD4 C/A enzymes were produced and purified as reported in E. Maspero et al. Methods Mol Biol. 1449:153-60 (2016).
Enzymatic incorporation of the labeled TRF-Ubiquitin mix into chains leads to an increase in fluorescence emission at 665 nm (emission of the acceptor Cy5-Ubiquitin, Emacceptor) and decrease at emission wavelength 620 nm (emission of the donor Eu-cryptate Ubiquitin, Emdonor).
The assay was performed in a 384-well plate format (Optiplate, Perkin Elmer, #6007290) on an automated liquid-handler (Hamilton STAR, Hamilton Robotics, Switzerland).
All compounds were dissolved in 100% DMSO and serially diluted in 96-well plates (from 100 μM to 0.005 μM).
Briefly, all reagents were thawed and kept on ice. A master mix containing E1, E2, E3 and TRF-Ubiquitin Mix (SBB-TR0051) diluted in the assay buffer (Tris-HCl pH 7.6 25 mM, NaCl 100 mM, MgCl2 5 mM and Tween 0.01%) is prepared and 50 μl/well is dispensed in a 384 well plate. 3 μl of compounds dissolved in DMSO in the above-indicated concentration range were added and pre-incubated for 1 hour. Final E1, E2 and E3 concentrations in the assay buffer (Tris-HCl pH 7.6 25 mM, NaCl 100 mM, MgCl2 5 mM and Tween 0.01%) were 30, 350 and 50 nanomolars, respectively. The reaction was initiated with the addition of ATP (22 μl of 2 mM ATP, JenaBioscience, NU-1010) and was allowed to proceed for 120 minutes, measuring fluorescence emission at 665 nm and 620 nm in real-time on an EnSpire microplate reader (Perkin Elmer).
Kinetic raw data were analyzed by Area Under the Curve (AUC) method using Prism GraphPad software.
% signal/background corresponds to the following equation: (Experimental signal−Background signal)/Background signal×100%
Experimental signal corresponds to the signal obtained by the enzymatic reaction in presence of the vehicle (DMSO) and/or the different compound concentrations. Background signal corresponds to the signal obtained by the enzymatic reaction in absence of ATP.
The relative potency of the compounds was evaluated by dose-response curves following the enzymatic reaction of HECT NEDD4 WT in real time for 120 minutes.
Percentage of inhibition is then determined by the equation: % inhibition=100×[1−(X)/(MAX)],
where MAX correspond to AUC of the vehicle (DMSO) treated enzyme, and X corresponds to the AUC of the compound treated enzyme.

Row | SMILES | inhibition at 11 µM [%]
1 | CCC(=O)/C=C/CN(C)CCCCN1c2ccccc2CCc2ccc(Cl)cc21 [Compound 54, (E)-6-[4-(3-chloro-10,11-dihydro-5H-dibenzo[b,f]azepin-5-yl)butyl-methyl-amino]hex-4-en-3-one maleate] | > 50
2 | CCOC(=O)/C=C/CNCCCN1c2ccccc2C(=O)N(CCO)c2ccc(Cl)cc21 [Compound 55, Ethyl (E)-4-({3-[7-chloro-10-(2-hydroxyethyl)-11-oxo-10,11-dihydro-5H-dibenzo[b,e][1,4]diazepin-5-yl]propyl}amino)but-2-enoate maleate] | < 30
3 | CC(=O)/C=C/CN(C)CCCCN1c2cc(Cl)ccc2C(=O)N(C)c2ccccc21 [Compound 57, 3-Chloro-10-methyl-5-(4-{methyl[(E)-4-oxopent-2-en-1-yl]amino}butyl)-5,10-dihydro-11H-dibenzo[b,e][1,4]diazepin-11-one maleate] | > 50
4 | CON(C)C(=O)/C=C/CN(C)CCCCN1c2cc(Cl)ccc2C(=O)N(Cc2ccccc2)c2ccccc21 [Compound 59, (E)-4-{[4-(10-Benzyl-3-chloro-11-oxo-10,11-dihydro-5H-dibenzo[b,e][1,4]diazepin-5-yl)butyl](methyl)amino}-N-methoxy-N-methyl-but-2-enamide maleate] | > 50
5 | CC(=O)/C=C/CN(C)CCCCN1c2cc(Cl)ccc2C(=O)N(Cc2ccccc2)c2ccccc21 [Compound 60, 10-Benzyl-3-chloro-5-(4-{methyl[(E)-4-oxo-pent-2-en-1-yl]amino}butyl)-5,10-dihydro-11H-dibenzo[b,e][1,4]diazepin-11-one maleate] | > 50
6 | COC(=O)/C=C/CNCCCCN1c2ccccc2CCc2ccc(Cl)cc21 [Compound 62, Methyl (E)-4-[4-(3-chloro-10,11-dihydro-5H-dibenzo[b,f]azepin-5-yl)butylamino]but-2-enoate maleate] | > 50
7 | CCOC(=O)/C=C/CN(C)CCCCN1c2ccccc2CCc2ccc(Cl)cc21 [Compound 63, Ethyl (E)-4-{[4-(3-chloro-10,11-dihydro-5H-dibenzo[b,f]azepin-5-yl)butyl]-methyl-amino}but-2-enoate maleate] | > 50
8 | CCOC(=O)/C=C/CN(CC)CCCCN1c2ccccc2CCc2ccc(Cl)cc21 [Compound 64, Ethyl (E)-4-{[4-(3-chloro-10,11-dihydro-dibenzo[b,f]azepin-5-yl)butyl]-ethyl-amino}but-2-enoate maleate] | > 50
9 | CCOC(=O)/C=C/CN(CCCCN1c2ccccc2CCc2ccc(Cl)cc21)C(C)C [Compound 65, Ethyl (E)-4-{[4-(3-chloro-10,11-dihydro-dibenzo[b,f]azepin-5-yl)butyl]-isopropyl-amino}but-2-enoate maleate] | > 50
10 | CNC(=O)/C=C/CNCCCCN1c2ccccc2CCc2ccc(Cl)cc21 [Compound 66, (E)-4-{[4-(3-chloro-10,11-dihydro-5H-dibenzo[b,f]azepin-5-yl)butyl]amino}-N-methyl-but-2-enamide hydrochloride] | 30 to 50
11 | CCOC(=O)/C=C/CNCCCCN1c2ccc(OC)cc2CCc2ccc(Cl)cc21 [Compound 67, Ethyl (E)-4-[4-(7-Chloro-2-methoxy-10,11-dihydro-dibenzo[b,f]azepin-5-yl)-butylamino]-but-2-enoate maleate] | > 50
12 | COC(=O)/C=C/CN(C)CCCCN1c2cc(Cl)ccc2COc2ccccc21 [Compound 68, Methyl (E)-4-[4-(3-chlorodibenzo[b,e][1,4]oxazepin-5(11H)-yl)butyl-methyl-amino]but-2-enoate] | > 50

More lines, now with the values ahead:

Row | inhibition at 11 µM [%] | SMILES
13 | > 50 | CON(C)C(=O)/C=C/CN(C)CCCCN1c2cc(Cl)ccc2COc2ccccc21 [Compound 69, (E)-4-[4-(3-Chlorodibenzo[b,e][1,4]oxazepin-5(11H)-yl)butyl-methyl-amino]-N-methoxy-N-methyl-but-2-enamide]
14 | > 50 | CC(=O)/C=C/CN(C)CCCCN1c2cc(Cl)ccc2COc2ccccc21 [Compound 70, (E)-5-[4-(3-Chlorodibenzo[b,e][1,4]oxazepin-5(11H)-yl)butyl-methyl-amino]pent-3-en-2-one maleate]
15 | > 50 | N#C/C=C/CNCCCCN1c2ccccc2CCc2ccc(Cl)cc21 [Compound 71, (E)-4-[4-(3-chloro-10,11-dihydro-5H-dibenzo[b,f]azepin-5-yl)butylamino]but-2-enenitrile maleate]
16 | > 50 | CN(C/C=C/C(N)=O)CCCCN1c2ccccc2CCc2ccc(Cl)cc21 [Compound 72, (E)-4-[4-(3-Chloro-10,11-dihydro-5H-dibenzo[b,f]azepin-5-yl)butyl-methyl-amino]but-2-enamide]
17 | > 50 | CN(C/C=C/C#N)CCCCN1c2ccccc2CCc2ccc(Cl)cc21 [Compound 73, (E)-4-[4-(3-Chloro-10,11-dihydro-5H-dibenzo[b,f]azepin-5-yl)butyl-methyl-amino]but-2-enenitrile maleate]
18 | > 50 | CCOC(=O)/C=C/CNCCCCN1c2ccc(CO)cc2CCc2ccc(Cl)cc21 [Compound 74, Ethyl (E)-4-[4-(7-Chloro-2-hydroxymethyl-10,11-dihydro-dibenzo[b,f]azepin-5-yl)-butylamino]-but-2-enoate maleate]
19 | > 50 | CCOC(=O)/C=C/CNCCCCN1c2ccc(COC)cc2CCc2ccc(Cl)cc21 [Compound 75, Ethyl (E)-4-[4-(7-chloro-2-methoxymethyl-10,11-dihydro-dibenzo[b,f]azepin-5-yl)-butylamino]-but-2-enoate maleate]
20 | > 50 | CCOC(=O)/C=C/CNCCCCN1c2ccc(COCCOC)cc2CCc2ccc(Cl)cc21 [Compound 76, Ethyl (E)-4-[4-(7-chloro-2-methoxyethoxymethyl-10,11-dihydro-dibenzo[b,f]azepin-5-yl)-butylamino]-but-2-enoate maleate]
21 | > 50 | O=C(/C=C/CNCCCCN1c2ccccc2CCc2ccc(Cl)cc21)NOCc1ccccc1 [Compound 79, (E)-4-[4-(3-chloro-10,11-dihydro-5H-dibenzo[b,f]azepin-5-yl)butylamino]-N-benzyloxy-but-2-enamide maleate]
22 | > 50 | CCONC(=O)/C=C/CNCCCCN1c2ccccc2CCc2ccc(Cl)cc21 [Compound 80, (E)-4-[4-(3-chloro-10,11-dihydro-5H-dibenzo[b,f]azepin-5-yl)butylamino]-N-ethoxy-but-2-enamide maleate]
23 | > 50 | CC(C)ONC(=O)/C=C/CNCCCCN1c2ccccc2CCc2ccc(Cl)cc21 [Compound 81, (E)-4-[4-(3-chloro-10,11-dihydro-5H-dibenzo[b,f]azepin-5-yl)butylamino]-N-isopropoxy-but-2-enamide maleate]
24 | > 50 | O=C(/C=C/CNCCCCN1c2ccccc2CCc2ccc(Cl)cc21)NOc1ccccc1 [Compound 82, (E)-4-[4-(3-chloro-10,11-dihydro-5H-dibenzo[b,f]azepin-5-yl)butylamino]-N-phenoxy-but-2-enamide maleate]
